The values that follow come from US10214542B2, “Modified macrocyclic compounds” (BAYER PHARMA AKTIENGESELLSCHAFT, priority 2015, dated 2019).

One test concerns A2780 cells. Briefly: Proliferation assay, Cell Titre-Glo viability (Method 3). It is filed as cell-based, human. The settings on record: A2780, 72-hour exposure, read-out: Inhibition of A2780 cell proliferation IC50. How it is done:
(§1) A2780 human ovarian carcinoma cells (ECACC #93112519) and non-adherent MOLM-13 human acute myeloid leukemia cells (DSMZ ACC 554) were seeded at a density of 3,000 cell/well (A2780) or 5,000 cells/well (MOLM-13) in a 96-well multititer plate in 150 μL of growth medium supplemented 10% fetal calf serum. After 24 hours, cell viability of one plate (zero-point plate) was determined with the Cell Titre-Glo Luminescent Cell Viability Assay (Promega), while the medium of the other plates was supplemented with the test substances in various concentrations (0 μM, as well as in the range of 0.0001-10 μM; the final concentration of the solvent dimethyl sulfoxide was adjusted to 0.1%) using a Hewlett-Packard HP D300 Digital Dispenser. Cell viability was assessed after 72-hour exposure with the Cell
(§2) Titre-Glo Luminescent Cell Viability Assay (Promega). IC50 values (inhibitory concentration at 50% of maximal effect) were determined by means of a 4 parameter fit on measurement data which were normalized to vehicle (DMSO) treated cells (=100%) and measurement readings taken immediately before compound exposure (=0%).

The target of test [1] is T1, CDK9/CycT1 (Homo sapiens, UniProt P50750).
T1 construct: Recombinant full-length His-tagged human CDK9 and CycT1; His; purchased Invitrogen PV4131; host or cells: insect cells
Briefly: CDK9/CycT1 high ATP kinase assay (TR-FRET, Method 1b). It counts as biochemical. The settings on record: 2 mM ATP; for IC50: Method 1b; for Selectivity high ATP CDK9 over high ATP CDK2: IC50 (high ATP CDK2)/IC50 (high ATP CDK9): Methods 1b and 2b. In general terms: TR-FRET usually uses a lanthanide donor and a delayed reading to cut background.

Test [2] deals with T1, CDK9/CycT1. Kind of test: CDK9/CycT1 kinase assay (TR-FRET, Method 1a). It is filed as biochemical. The note with it: 10 μM ATP; for IC50: Method 1a; for Selectivity CDK9 over CDK2: IC50 (CDK2)/IC50 (CDK9): Methods 1a and 2a. The source says:
1a. CDK9/CycT1 Kinase Assay:
CDK9/CycT1-inhibitory activity of compounds of the present invention was quantified employing the CDK9/CycT1 TR-FRET assay as described in the following paragraphs:
Recombinant full-length His-tagged human CDK9 and CycT1, expressed in insect cells and purified by Ni-NTA affinity chromatography, were purchased from Invitrogen (Cat. No PV4131). As substrate for the kinase reaction biotinylated peptide biotin-Ttds-YISPLKSPYKISEG (C-terminus in amid form) was used which can be purchased e.g. from the company JERINI Peptide Technologies (Berlin, Germany).
For the assay 50 nl of a 100 fold concentrated solution of the test compound in DMSO was pipetted into a black low volume 384 well microtiter plate (Greiner Bio-One, Frickenhausen, Germany), 2 μl of a solution of CDK9/CycT1 in aqueous assay buffer [50 mM Tris/HCl pH 8.0, 10 mM MgCl2, 1.0 mM dithiothreitol, 0.1 mM sodium ortho-vanadate, 0.01% (v/v) Nonidet-P40 (Sigma)] were added and the mixture was incubated for 15 min at 22° C. to allow pre-binding of the test compounds to the enzyme before the start of the kinase reaction. […] The concentration of CDK9/CycT1 was adjusted depending of the activity of the enzyme lot and was chosen appropriate to have the assay in the linear range, typical concentrations were in the range of 1 μg/mL. The reaction was stopped by the addition of 5 μl of a solution of TR-FRET detection reagents (0.2 μM streptavidine-XL665 [Cisbio Bioassays, Codolet, France] and 1 nM anti-RB(pSer807/pSer811)-antibody from BD Pharmingen [#558389] and 1.2 nM LANCE EU-W1024 labeled anti-mouse IgG antibody [Perkin-Elmer, product no. AD0077]) in an aqueous EDTA-solution (100 mM EDTA, 0.2% (w/v) bovine serum albumin in 100 mM HEPES pH 7.5).
The resulting mixture was incubated 1 h at 22° C. to allow the formation of complex between the phosphorylated biotinylated peptide and the detection reagents. Subsequently the amount of phosphorylated substrate was evaluated by measurement of the resonance energy transfer from the Eu-chelate to the streptavidine-XL. Therefore, the fluorescence emissions at 620 nm and 665 nm after excitation at 350 nm was measured in a HTRF reader, e.g. a Rubystar (BMG Labtechnologies, Offenburg, Germany) or a Viewlux (Perkin-Elmer). The ratio of the emissions at 665 nm and at […] was taken as the measure for the amount of phosphorylated substrate. The data were normalised (enzyme reaction without inhibitor=0% inhibition, all other assay components but no enzym=100% inhibition).

The subject of the next test is MOLM-13 cells. Kind of test: Proliferation assay, Cell Titre-Glo viability (Method 3). It counts as cell-based. The settings on record: Homo sapiens; MOLM-13, 72-hour exposure; read-out: Inhibition of MOLM-13 cell proliferation IC50. Here is the method:
as §1, §2

Structures are written as SMILES. Where two headings read alike, the source gives them in different places. Some results are limits rather than exact numbers.

T1 sequence (P50750 whole entry): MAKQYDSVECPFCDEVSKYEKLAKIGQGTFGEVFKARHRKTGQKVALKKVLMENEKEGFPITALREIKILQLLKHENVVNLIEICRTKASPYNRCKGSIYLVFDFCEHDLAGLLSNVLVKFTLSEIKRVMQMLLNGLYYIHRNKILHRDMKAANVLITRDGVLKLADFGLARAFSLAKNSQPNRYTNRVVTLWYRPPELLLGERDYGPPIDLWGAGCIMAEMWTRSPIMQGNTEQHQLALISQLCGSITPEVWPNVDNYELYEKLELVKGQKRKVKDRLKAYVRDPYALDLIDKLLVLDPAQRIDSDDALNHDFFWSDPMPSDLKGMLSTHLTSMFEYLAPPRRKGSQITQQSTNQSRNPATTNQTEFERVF
T1 sequence (O60563 whole entry partner): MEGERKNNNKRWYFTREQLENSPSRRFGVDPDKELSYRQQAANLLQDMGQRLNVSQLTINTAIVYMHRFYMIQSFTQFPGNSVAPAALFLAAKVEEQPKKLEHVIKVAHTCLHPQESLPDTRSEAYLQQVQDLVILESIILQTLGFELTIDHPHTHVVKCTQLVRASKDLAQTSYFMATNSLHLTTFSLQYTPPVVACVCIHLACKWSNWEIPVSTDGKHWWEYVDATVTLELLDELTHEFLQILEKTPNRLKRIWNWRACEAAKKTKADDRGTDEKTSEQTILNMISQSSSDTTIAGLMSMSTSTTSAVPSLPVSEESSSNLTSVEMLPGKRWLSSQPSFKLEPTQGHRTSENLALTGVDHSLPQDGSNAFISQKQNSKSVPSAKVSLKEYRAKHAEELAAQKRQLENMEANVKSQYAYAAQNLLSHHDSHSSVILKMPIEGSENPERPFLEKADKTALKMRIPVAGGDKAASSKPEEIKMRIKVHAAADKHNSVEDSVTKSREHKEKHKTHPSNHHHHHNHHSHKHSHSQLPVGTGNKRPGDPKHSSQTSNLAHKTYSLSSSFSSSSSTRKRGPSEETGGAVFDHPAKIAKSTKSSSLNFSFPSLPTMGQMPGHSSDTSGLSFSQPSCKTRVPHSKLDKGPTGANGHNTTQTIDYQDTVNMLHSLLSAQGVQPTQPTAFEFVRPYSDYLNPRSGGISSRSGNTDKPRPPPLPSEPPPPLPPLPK

Consider `C[S+]([O-])Cc1cc2nc(c1)OCCCCCc1cc(F)ccc1-c1cc(ncc1F)N2` (racemic) [Example 19, (rac)-2,19-difluoro-9-[(methylsulfinyl)methyl]-14,15,16,17-tetrahydro-6H,13H-7,11-(azeno)-5,1-(metheno)-12,4,6-benzoxadiazacyclononadecine], for which the IC50 is more than 100 nM in the test on A2780 cells (Homo sapiens, A2780, 72 h); 17 nM against CDK9/CycT1 [1]; 15 nM on CDK9/CycT1 [2]; 231 nM in the test with MOLM-13 cells. The “Selectivity high ATP CDK9 over high ATP CDK2: IC50 (high ATP CDK2)/IC50 (high ATP CDK9)” value (from here on “Selectivity high ATP CDK9”) at CDK9/CycT1 [1] is given as 82.9. Besides, the “Selectivity CDK9 over CDK2: IC50 (CDK2)/IC50 (CDK9)” value (shortened to “Selectivity CDK9 over CDK2: IC50”) on CDK9/CycT1 [2] came out at 24.7.

With `CS(=N)(=O)Cc1cc2nc(c1)OCCCCCc1cc(F)ccc1-c1cc(ncc1F)N2` (racemic) [Example 20, (rac)-2,19-difluoro-9-[(S-methylsulfonimidoyl)methyl]-14,15,16,17-tetrahydro-6H,13H-7,11-(azeno)-5,1-(metheno)-12,4,6-benzoxadiazacyclononadecine], the IC50 with A2780 cells was 161 nM; with A2780 cells (Homo sapiens, A2780, 72 h) it was more than 100 nM; on CDK9/CycT1 [1], 5.2 nM; against CDK9/CycT1 [2], 5.5 nM; in the test on MOLM-13 cells, 79 nM. At CDK9/CycT1 [1], the “Selectivity high ATP CDK9” value came to 177. Moreover, the “Selectivity CDK9 over CDK2: IC50” value at CDK9/CycT1 [2] is reported as 29.5.

With `CN1CCCCOc2cc(F)ccc2-c2nc(ncc2F)Nc2cc(CS(C)(=N)=O)cc1c2` (racemic) [Example 23, (rac)-16,20-difluoro-6-methyl-9-[(S-methylsulfonimidoyl)methyl]-3,4,5,6-tetrahydro-2H,12H-13,17-(azeno)-11,7-(metheno)-1,6,12,14-benzoxatriazacyclononadecine], the IC50 was found to be 13 nM in the test with A2780 cells (Homo sapiens, A2780, 72 h); 2.1 nM against CDK9/CycT1 [1]; 5.2 nM against CDK9/CycT1 [2]; 9.8 nM with MOLM-13 cells. The “Selectivity high ATP CDK9” value on CDK9/CycT1 [1] is 629. Moreover, at CDK9/CycT1 [2], the “Selectivity CDK9 over CDK2: IC50” value is 20.0.

In the case of `CSCc1cc2nc(c1)Nc1cc(c(F)cn1)-c1ccc(F)cc1OCCCN2` [Example 1, 15,19-Difluoro-8-[(methylsulfanyl)methyl]-2,3,4,5-tetrahydro-11H-10,6-(azeno)-12,16-(metheno)-1,5,11,13-benzoxatriazacyclooctadecine], the IC50 with A2780 cells (Homo sapiens, A2780, 72 h) was 9 nM; against CDK9/CycT1 [1], 3.8 nM; against CDK9/CycT1 [2], 2.9 nM; in the test on MOLM-13 cells, 8 nM. Further, at CDK9/CycT1 [1], the “Selectivity high ATP CDK9” value came out at 140. Moreover, the “Selectivity CDK9 over CDK2: IC50” value on CDK9/CycT1 [2] was determined as 28.1.

As to `CSCc1cc2nc(c1F)N(C)CCCCOc1cc(F)ccc1-c1cc(ncc1F)N2` [Example 12, 8,16,20-trifluoro-6-methyl-9-[(methylsulfanyl)methyl]-3,4,5,6-tetrahydro-2H,12H-11,7-(azeno)-13,17-(metheno)-1,6,12,14-benzoxatriazacyclononadecine], the IC50 with A2780 cells (Homo sapiens, A2780, 72 h) is more than 100 nM; against CDK9/CycT1 [1], 10 nM; against CDK9/CycT1 [2], 25 nM; with MOLM-13 cells, 100 nM. At CDK9/CycT1 [2], the “Selectivity CDK9 over CDK2: IC50” value was 1.1.
